Test results from ChEMBL document CHEMBL5390235, “Reading and erasing of histone crotonyllysine mimics by the AF9 YEATS domain and SIRT2 deacylase” (Bioorg Med Chem, 2023).
Active and inactive are the calls of the source. No cut-off for these calls is given here.

How the values were obtained:
Protein AF-9 = biological target: T1, Protein AF-9 (Homo sapiens, UniProt P42568); test: Binding affinity to N-terminal His-tagged recombinant human AF9 YEATS domain (1 to 138 residues) expressed in Escherichia coli 2(DE3)pLysS cells assessed as dissociation constant by ITC assay
T1 sequence (P42568 whole entry): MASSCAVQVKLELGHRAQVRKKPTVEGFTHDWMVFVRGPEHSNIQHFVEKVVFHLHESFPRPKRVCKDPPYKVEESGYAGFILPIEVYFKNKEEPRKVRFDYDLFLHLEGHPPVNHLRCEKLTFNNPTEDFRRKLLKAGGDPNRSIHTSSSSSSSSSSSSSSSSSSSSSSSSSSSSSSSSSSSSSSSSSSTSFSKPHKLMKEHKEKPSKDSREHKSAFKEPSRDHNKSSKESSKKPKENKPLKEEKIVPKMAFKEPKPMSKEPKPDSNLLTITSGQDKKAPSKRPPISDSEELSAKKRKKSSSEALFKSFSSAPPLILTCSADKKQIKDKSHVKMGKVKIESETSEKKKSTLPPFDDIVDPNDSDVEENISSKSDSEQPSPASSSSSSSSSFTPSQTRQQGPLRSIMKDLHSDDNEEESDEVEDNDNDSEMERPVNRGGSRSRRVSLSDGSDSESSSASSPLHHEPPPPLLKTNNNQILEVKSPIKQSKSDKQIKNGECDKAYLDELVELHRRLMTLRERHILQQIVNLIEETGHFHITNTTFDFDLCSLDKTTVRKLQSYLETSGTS

[1] = biological target: T2, NAD-dependent protein deacetylase sirtuin-2 (Homo sapiens) (UniProt Q8IXJ6); test: Induction of recombinant human SIRT2 (50 to 356 residues) deacetylase activity measured after 6 hrs in presence of NAD+ by MALDI-TOF-MS analysis; set-up: concentration or dose not given beside the values
T2 sequence (whole entry): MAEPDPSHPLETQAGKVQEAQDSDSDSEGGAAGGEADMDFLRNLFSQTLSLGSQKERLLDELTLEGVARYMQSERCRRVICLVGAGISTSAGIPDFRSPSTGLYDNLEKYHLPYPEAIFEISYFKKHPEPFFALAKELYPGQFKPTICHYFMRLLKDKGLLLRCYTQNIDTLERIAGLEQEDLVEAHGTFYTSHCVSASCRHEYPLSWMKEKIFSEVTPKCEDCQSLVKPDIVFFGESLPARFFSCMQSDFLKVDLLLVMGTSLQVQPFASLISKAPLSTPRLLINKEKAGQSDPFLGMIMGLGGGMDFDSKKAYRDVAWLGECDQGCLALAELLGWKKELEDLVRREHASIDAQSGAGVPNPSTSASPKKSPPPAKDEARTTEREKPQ

[2] = biological target: T2, NAD-dependent protein deacetylase sirtuin-2 (Homo sapiens); test: Induction of recombinant human SIRT2 (50 to 356 residues) deacetylase activity measured after 24 hrs in presence of NAD+ by MALDI-TOF-MS analysis

SMILES: C=CC(=O)NCCCC[C@H](NC(=O)[C@H](CCCNC(=N)N)NC(=O)[C@H](C)NC(=O)[C@@H](NC(=O)[C@H](CCC(N)=O)NC(=O)[C@H](CCCCN)NC(=O)[C@@H](N)[C@@H](C)O)[C@@H](C)O)C(=O)N[C@@H](CO)C(=O)N[C@H](C(=O)NCC(=O)NCC(=O)N[C@@H](CCCCN)C(=O)N[C@@H](C)C(=O)O)[C@@H](C)O
- Kd (Protein AF-9): 13.7 µM
- Activity ([1]; filed as activator): 55%

SMILES: CC/C=C/C(=O)NCCCC[C@H](NC(=O)[C@H](CCCNC(=N)N)NC(=O)[C@H](C)NC(=O)[C@@H](NC(=O)[C@H](CCC(N)=O)NC(=O)[C@H](CCCCN)NC(=O)[C@@H](N)[C@@H](C)O)[C@@H](C)O)C(=O)N[C@@H](CO)C(=O)N[C@H](C(=O)NCC(=O)NCC(=O)N[C@@H](CCCCN)C(=O)N[C@@H](C)C(=O)O)[C@@H](C)O
- Kd (Protein AF-9): 13.6 µM
- Activity ([1]; filed as activator): 75%

SMILES: C/C=C(\C)C(=O)NCCCC[C@H](NC(=O)[C@H](CCCNC(=N)N)NC(=O)[C@H](C)NC(=O)[C@@H](NC(=O)[C@H](CCC(N)=O)NC(=O)[C@H](CCCCN)NC(=O)[C@@H](N)[C@@H](C)O)[C@@H](C)O)C(=O)N[C@@H](CO)C(=O)N[C@H](C(=O)NCC(=O)NCC(=O)N[C@@H](CCCCN)C(=O)N[C@@H](C)C(=O)O)[C@@H](C)O
- Kd (Protein AF-9): 46.5 µM
- Activity [1]: 39%

SMILES: C[C@H](NC(=O)[C@H](CCCCN)NC(=O)CNC(=O)CNC(=O)[C@@H](NC(=O)[C@H](CO)NC(=O)[C@H](CCCCNC(=O)/C=C/c1ccccc1)NC(=O)[C@H](CCCNC(=N)N)NC(=O)[C@H](C)NC(=O)[C@@H](NC(=O)[C@H](CCC(N)=O)NC(=O)[C@H](CCCCN)NC(=O)[C@@H](N)[C@@H](C)O)[C@@H](C)O)[C@@H](C)O)C(=O)O
- Kd (Protein AF-9): 5.1 µM
- Activity [2]: inactive

SMILES: CC#CC(=O)NCCCC[C@H](NC(=O)[C@H](CCCNC(=N)N)NC(=O)[C@H](C)NC(=O)[C@@H](NC(=O)[C@H](CCC(N)=O)NC(=O)[C@H](CCCCN)NC(=O)[C@@H](N)[C@@H](C)O)[C@@H](C)O)C(=O)N[C@@H](CO)C(=O)N[C@H](C(=O)NCC(=O)NCC(=O)N[C@@H](CCCCN)C(=O)N[C@@H](C)C(=O)O)[C@@H](C)O
- Kd (Protein AF-9): 20.5 µM
- Activity [1]: 30%
- Activity ([2]; filed as activator): 50%

SMILES: CC(C)=CC(=O)NCCCC[C@H](NC(=O)[C@H](CCCNC(=N)N)NC(=O)[C@H](C)NC(=O)[C@@H](NC(=O)[C@H](CCC(N)=O)NC(=O)[C@H](CCCCN)NC(=O)[C@@H](N)[C@@H](C)O)[C@@H](C)O)C(=O)N[C@@H](CO)C(=O)N[C@H](C(=O)NCC(=O)NCC(=O)N[C@@H](CCCCN)C(=O)N[C@@H](C)C(=O)O)[C@@H](C)O
- Kd (Protein AF-9): 159 µM
- Activity [1]: 2%
- Activity [2]: 12%

SMILES: C/C=C/C(=O)NCCCC[C@H](NC(=O)[C@H](CCCNC(=N)N)NC(=O)[C@H](C)NC(=O)[C@@H](NC(=O)[C@H](CCC(N)=O)NC(=O)[C@H](CCCCN)NC(=O)[C@@H](N)[C@@H](C)O)[C@@H](C)O)C(=O)N[C@@H](CO)C(=O)N[C@H](C(=O)NCC(=O)NCC(=O)N[C@@H](CCCCN)C(=O)N[C@@H](C)C(=O)O)[C@@H](C)O
- Kd (Protein AF-9): 7.8 µM
- Activity ([1]; filed as activator): 60%

SMILES: C[C@H](NC(=O)[C@H](CCCCN)NC(=O)CNC(=O)CNC(=O)[C@@H](NC(=O)[C@H](CO)NC(=O)[C@H](CCCCNC(=O)/C=C/C(F)(F)F)NC(=O)[C@H](CCCNC(=N)N)NC(=O)[C@H](C)NC(=O)[C@@H](NC(=O)[C@H](CCC(N)=O)NC(=O)[C@H](CCCCN)NC(=O)[C@@H](N)[C@@H](C)O)[C@@H](C)O)[C@@H](C)O)C(=O)O
- Kd (Protein AF-9): 48.5 µM
- Activity [2]: inactive
